Laboratory results: patent US7771726B2, “Use of synthetic glycolipids as universal adjuvants for vaccines against cancer and infectious diseases” (New York University, priority 2003, dated 2010)

How the values were obtained:
human NKT cells = assay: stimulation of human NKT cells; format: cell-based
[1] = system: Gag-specific CD8+ and CD4+ T cell response; assay: adjuvant activity with DNA vaccine encoding an HIV Gag sequence (FIGS. 3A and 3B); format: in vivo; details: for Gag-specific CD8+ T cell response: FIG. 3A
Description: FIGS. 3A and 3B depict the adjuvant activity of α-GalCer and CRONY 101, and the enhancement of a Gag-specific CD8+ T-cell response elicited by a DNA vaccine encoding an HIV-Gag sequence.
Further studies used a naked DNA plasmid encoding an HIV Gag sequence, as a vaccine.

melanoma metastases = melanoma metastases disease model, activity compared to α-GalCer; format: in vivo, mice; details: disease model requiring Th1-type responses; relative to α-GalCer
Description: (§1) As reported in copending U.S. patent application Ser. No. 10/206,155, α-Galactosylceramide (α-GalCer) is a glycolipid ligand for natural killer T (NKT) cells, which respond to the glycolipid and produce both interferon (IFN)-γ and interleukin (IL)-4. […] It has now been discovered that synthetic C-glycoside analogs of α-GalCer of general formula (I) act as an NKT cell ligand and display 100-1000 fold higher activity against tumor and malaria, by preferentially inducing the production of Th1-type cytokines, IFN-γ and IL-12, in vivo.

[2] = system: malaria antigen-specific CD8+ T-cell responses; assay: adjuvant activity with suboptimal dose of recombinant adenovirus expressing a malarial antigen (FIG. 2); format: in vivo, mice
Description: FIG. 2 depicts the adjuvant activity of CRONY 101, and the enhancement of a malaria-specific CD8+ T-cell response elicited by a recombinant adenovirus expressing a malaria antigen; and
In FIG. 2, the number of IFN secreting CD8+ T cells per million splenocytes is greater for CRONY 101 than for α-GalCer.
Thus, co-administration of α-C-GalCer to mice immunized with a suboptimal dose of a recombinant adenovirus expressing a malarial antigen enhanced protective antimalaria immunity and the level of malaria antigen-specific CD8^+ T-cell responses. Coadministration of 1 ng of CRONY 101 was compared to administration of 1 μg of α-GalCer.

malaria = malaria disease model in mice, activity compared to α-GalCer; format: in vivo; details: disease model requiring Th1-type responses; relative to α-GalCer
Description: as §1

murine NKT cells = assay: stimulation of murine NKT cells; format: cell-based
[3] = system: Th1-type cytokines, IFN-γ and IL-12; Th2 cytokine, IL-4; assay: cytokine production in vivo after administration to mice; details: as compared to α-GalCer
Description: as §1

[4] = system: human CD1d-restricted lymphocytes that express a semi-invariant TCR; details: Kawano et al., 1997; cited from earlier work
[5] = system: HIV specific CD4+/CD8+ T-cell responses; assay: adjuvant effects on DNA vaccination in mice (FIG. 1); format: in vivo
Description: FIG. 1 depicts the adjuvant effects of α-GalCer on DNA vaccination in mice, and the enhancement of HIV-specific CD4+/CD8+ T-Cell responses;
FIG. 1 depicts the adjuvant effects of the α-GalCer on DNA vaccination in mice.

[6] = system: mouse CD1d-restricted lymphocytes that express a semi-invariant TCR; details: Kawano et al., 1997; cited from earlier work
[7] = DNA vaccine encoding an HIV Gag sequence
[8] = co-administration, mice immunized with suboptimal dose of recombinant adenovirus

Structure (SMILES) | stimulation of human NKT cells (human NKT cells) | Gag-specific CD8+ T cell response [1, 7] | Gag-specific CD4+ T cell response ([1]; FIG. 3B, DNA vaccine encoding a HIV-Gag sequence) | adjuvant activity compared with α-GalCer ([1]; FIGS. 3A and 3B, DNA vaccine encoding an HIV Gag sequence) | more potent activity than α-GalCer, melanoma metastases (melanoma metastases) | increased number of malaria specific CD8+ cells ([2]; 1 ng of CRONY 101 as compared to 1 μg of α-GalCer) | number of IFN secreting CD8+ T cells per million splenocytes ([2]; FIG. 2, compared with α-GalCer) | adjuvant activity compared with α-GalCer ([2]; FIG. 2, recombinant adenovirus expressing a malaria antigen) | level of malaria antigen-specific CD8+ T-cell responses [2, 8] | protective antimalaria immunity [2, 8] | more potent activity than α-GalCer, malaria (malaria) | stimulation of murine NKT cells (murine NKT cells) | population of the Th2 cytokine, IL-4 [3] | production of the Th1-type cytokines [3] | concentrations at which recognized [4] | HIV specific CD4+/CD8+ T-cell responses [5] | concentrations at which recognized [6]
CCCCCCCCCCCCCCCCCCCCCCCCCC(=O)N[C@@H](CCC1OC(CO)[C@H](O)C(O)[C@@H]1O)[C@H](O)[C@H](O)CCCCCCCCCCCCCC (stereo partly drawn) [CRONY 101, 3′S,4′S,5′R-3′-N-hexacosanoyl-4′,5′-dihydroxynonadecyl-α-C-D-galactopyranoside] | stimulate | enhances | enhancing | more potent | 100 fold | ⅚ | greater | more potent | enhanced | enhanced | 1000 fold | stimulate | decreased | prolonged production |  |  | 
CCCCCCCCCCCCCCCCCCCCCCCCCC(=O)N[C@@H](CO[C@H]1O[C@H](CO)[C@H](O)[C@H](O)[C@H]1O)[C@H](O)[C@H](O)CCCCCCCCCCCCCC [α-GalCer, α-galactosyl-ceramide, reference compound] | stimulate | enhancement |  |  |  |  |  |  |  |  |  | stimulate |  |  | picomolar | enhancement | picomolar
